Data reported in ChEMBL document CHEMBL3352739, “Comparative in vivo evaluation of polyalkoxy substituted 4H-chromenes and oxa-podophyllotoxins as microtubule destabilizing agents in the phenotypic sea urchin embryo assay” (2014).

Tests used:
Paracentrotus lividus [1] = experiment: Antimitotic microtubule destabilizing activity in Paracentrotus lividus L embryos assessed as induction of cleavage alteration
Paracentrotus lividus [2] = experiment: Antimitotic microtubule destabilizing activity in Paracentrotus lividus L embryos assessed as induction of cleavage arrest
Paracentrotus lividus [3] = experiment: Antimitotic microtubule destabilizing activity in Paracentrotus lividus L embryos assessed as induction of embryo spinning
[4] = Cytotoxicity against human NCI60 cells; format: functional

Row | SMILES | EC (Paracentrotus lividus [1]) | EC (Paracentrotus lividus [2]) | EC (Paracentrotus lividus [3]) | GI50 [4]
1 | COc1ccc2c(c1)OC(N)=C(C#N)C2c1cc(OC)c2c(c1)OCCO2 (stereo not drawn) | 0.005 µM | 0.02 µM | 0.1 µM | 
2 | N#CC1=C(N)Oc2cc(O)ccc2C1c1cc2c(c([N+](=O)[O-])c1)OCCO2 (stereo not drawn) | 4 µM | > 4 µM | > 4 µM | 99.3 µM
3 | COc1ccc2c(c1)OC(N)=C(C#N)C2c1cc2c(c([N+](=O)[O-])c1)OCCO2 (stereo not drawn) | 0.02 µM | 0.1 µM | 1 µM | 
4 | COc1cc(C2C(C#N)=C(N)Oc3cc(O)ccc32)cc2c1OCCO2 (stereo not drawn) | 1 µM | 4 µM | > 5 µM | 
5 | COc1cccc(C2C(C#N)=C(N)Oc3cc(O)ccc32)c1OC (stereo not drawn) | > 4 µM | > 4 µM | > 4 µM | 
6 | COc1ccc2c(c1)OC(N)=C(C#N)C2c1ccc(OC)c(OC)c1 (stereo not drawn) | 0.05 µM | 0.2 µM | 1 µM | 
7 | COc1c(C2C(C#N)=C(N)Oc3cc(O)ccc32)cc2c(c1OC)OCO2 (stereo not drawn) | 4 µM | > 4 µM | > 4 µM | 
8 | CCOc1ccccc1C1C(C#N)=C(N)Oc2cc(OC)ccc21 (stereo not drawn) | 0.02 µM | 0.2 µM | 0.5 µM | 
9 | COc1ccc(C2C(C#N)=C(N)Oc3cc(O)ccc32)c(OC)c1OC (stereo not drawn) | > 4 µM | > 4 µM | > 4 µM | 
10 | COc1ccccc1C1C(C#N)=C(N)Oc2cc(O)ccc21 (stereo not drawn) | 0.5 µM | > 4 µM | > 5 µM | 
11 | N#CC1=C(N)Oc2cc(O)ccc2C1c1ccccc1I (stereo not drawn) | 4 µM | > 4 µM | > 4 µM | 
12 | COc1cc(C2C(C#N)=C(N)Oc3cc(O)ccc32)c(OC)c(OC)c1OC (stereo not drawn) | > 4 µM | > 4 µM | > 4 µM | 
13 | COc1cccc([C@@H]2C(C#N)=C(N)Oc3cc(OC)ccc32)c1 | 0.05 µM | 0.5 µM | 4 µM | 
14 | COc1cc(C2C(C#N)=C(N)Oc3cc(O)ccc32)cc2c1OCO2 (stereo not drawn) | 0.5 µM | 4 µM | 10 µM | 
15 | COc1ccc2c(c1)OC(N)=C(C#N)C2c1cc(N)c2c(c1)OCCO2 (stereo not drawn) | 0.1 µM | 0.5 µM | 5 µM | 
16 | COc1ccc(C2C(C#N)=C(N)Oc3cc(O)ccc32)c(OC)c1 (stereo not drawn) | > 4 µM | > 4 µM | > 4 µM | 
17 | COc1cc(C2C(C#N)=C(N)Oc3cc4c(cc32)OCO4)cc2c1OCO2 (stereo not drawn) | 0.005 µM | 0.05 µM | 0.2 µM | 0.389 µM
18 | COc1ccc2c(c1)OC(N)=C(C#N)C2c1cccc(OC)c1OC (stereo not drawn) | 0.2 µM | 2 µM | 4 µM | 
19 | COc1ccc2c(c1)OC(N)=C(C#N)C2c1cc(OC)c2c(c1)OCO2 (stereo not drawn) | 0.005 µM | 0.02 µM | 0.05 µM | 
20 | COc1ccc2c(c1)OC(N)=C(C#N)[C@@H]2c1cc(OC)c(OC)c(OC)c1 | 0.005 µM | 0.04 µM | 0.2 µM | 
21 | COc1cc(OC)c(C2C(C#N)=C(N)Oc3cc(O)ccc32)c(OC)c1 (stereo not drawn) |  | > 4 µM | > 4 µM | 
22 | N#CC1=C(N)Oc2cc(O)ccc2C1c1ccccc1 (stereo not drawn) | 0.5 µM | 2 µM | > 5 µM | 
23 | N#CC1=C(N)Oc2cc(O)ccc2C1c1ccccc1F (stereo not drawn) | 1 µM | 4 µM | > 5 µM | 
24 | COc1ccc2c(c1)OC(N)=C(C#N)C2c1cc(OC)c2c(c1OC)OCO2 (stereo not drawn) | 0.1 µM | 1 µM | 4 µM | 
25 | COc1cccc([C@H]2C(C#N)=C(N)Oc3cc(OC)ccc32)c1 | 0.001 µM | 0.01 µM | 0.05 µM | 
26 | COc1ccc(C2C(C#N)=C(N)Oc3cc(OC)ccc32)c(OC)c1 (stereo not drawn) | 0.1 µM | 1 µM | 4 µM | 
27 | COc1ccc2c(c1)OC(N)=C(C#N)[C@H]2c1cc(OC)c(OC)c(OC)c1 | 2 µM | > 4 µM | > 5 µM | 
28 | COc1ccc(C2C(C#N)=C(N)Oc3cc(OC)ccc32)cc1 (stereo not drawn) | 0.1 µM | 1 µM | > 5 µM | 
29 | COc1cccc(C2C(C#N)=C(N)Oc3cc(O)ccc32)c1 (stereo not drawn) | 0.1 µM | 2 µM | > 5 µM | 
